Drawing on patent publication US7816342B2, “Anti-obesity compositions” (Hoffmann-La Roche Inc., priority 2002, dated 2010), this text covers Free oil production for one compound.

The assay concerns Healthy volunteers. Description: acute human side effect model (3-meal test), free oil. The class given is in vivo. The settings on record: orlistat alone (own control), individual volunteers. An excerpt:
To test substances that will ameliorate the oil-related side effects associated with orlistat treatment, an acute human model was developed. Healthy volunteers received orlistat alone or in combination with the test substance during 3 consecutive meals (3-meal test). The modified orlistat formulations used in these 3-meal tests induce 70-80% fat excretion. A questionnaire was given to the volunteers to record side effects. The most severe oil related side effect is oily spotting (uncontrolled loss of oil). This side effect is difficult to quantify accurately in an acute model, however, in some volunteers a spontaneous separation of fat from formed stool was observed. This amount of fat, called free oil (mainly containing triglycerides) was isolated and weighted. The amount of free oil was used as a surrogate marker for the oily spotting as this is considered necessary for the appearance of oily spotting. Two clinical studies have been conducted to investigate the gastro-intestinal adverse event modifying effects of numerous substances. It appears that volunteers show an individual sensitivity to the orlistat-related gastro-intestinal side effects. […] For a given volunteer a substance is considered as positive when the free oil quantity is reduced by at least 50% compared to the control value (orlistat alone). […]

Structures are written as SMILES. “And” between values parts separate entries of the source, which are not always exact repeats. Identical values can stand only once.

Take `CCCCCCCCCCC[C@@H](C[C@@H]1OC(=O)[C@H]1CCCCCC)OC(=O)[C@H](CC(C)C)NC=O` [orlistat]: the Free oil production runs as follows: (Test 1) 11 g/week and 9 g/week; (Test 2) 17 g/week and 40 g/week and 39 g/week.
